From BindingDB's records for doi:10.1021/jm00054a014 (Monsanto Corporate Research, 1993)
pIC50: −log10 of the molar value.

Each compound was assayed against T1, Dimer of Gag-Pol polyprotein [489-587] (Human immunodeficiency virus 1, UniProt P12497) (assay: Protease Inhibition Assay). Details: pH 6.4; 25 °C.
T1 construct: 489-587
Experimental: IC50 values for inhibition of recombinant HIV protease were determined using the spectrofluorometric assay, which utilized an intramolecularly quenched fluorogenic substrate, 2-(aminobenzoyl)-Thr-Ile-Nle-Phe(p-NO2)-Gln-ArgNH2. Cleavage of the substrate by HIV protease released the fluorescent N-terminal tripeptide from its close apposition to the quenching nitrobenzyl group, resulting in enhanced fluorescence.

Row | SMILES | pIC50
1 | CCCCNC(=O)N(C)C[C@@H](O)[C@H](Cc1ccccc1)NC(=O)[C@H](CC(N)=O)NC(=O)OCc1ccccc1 [benzyl N-[(1S)-1-{[(2S,3R)-4-[(butylcarbamoyl)(methyl)amino]-3-hydroxy-1-phenylbutan-2-yl]carbamoyl}-2-carbamoylethyl]carbamate] | < 5.00
2 | CNC(=O)N(CC(C)C)C[C@H](O)[C@H](Cc1ccccc1)NC(=O)[C@H](CC(N)=O)NC(=O)OCc1ccccc1 [benzyl N-[(1S)-2-carbamoyl-1-{[(2S,3S)-3-hydroxy-4-[(methylcarbamoyl)(2-methylpropyl)amino]-1-phenylbutan-2-yl]carbamoyl}ethyl]carbamate] | < 5.00
3 | CCCCNC(=O)N(CC(C)C)C[C@H](O)[C@H](Cc1ccccc1)NC(=O)[C@H](CC(N)=O)NC(=O)OCc1ccccc1 [benzyl N-[(1S)-1-{[(2S,3S)-4-[(butylcarbamoyl)(2-methylpropyl)amino]-3-hydroxy-1-phenylbutan-2-yl]carbamoyl}-2-carbamoylethyl]carbamate] | < 5.00
4 | CNC(=O)N(C)C[C@@H](O)[C@H](Cc1ccccc1)NC(=O)[C@H](CC(N)=O)NC(=O)OCc1ccccc1 [benzyl N-[(1S)-2-carbamoyl-1-{[(2S,3R)-3-hydroxy-4-[methyl(methylcarbamoyl)amino]-1-phenylbutan-2-yl]carbamoyl}ethyl]carbamate] | < 5.00
5 | CCCCNC(=O)N(C)C[C@H](O)[C@H](Cc1ccccc1)NC(=O)[C@H](CC(N)=O)NC(=O)OCc1ccccc1 [benzyl N-[(1S)-1-{[(2S,3S)-4-[(butylcarbamoyl)(methyl)amino]-3-hydroxy-1-phenylbutan-2-yl]carbamoyl}-2-carbamoylethyl]carbamate] | < 5.00
6 | CNC(=O)N(C)C[C@H](O)[C@H](Cc1ccccc1)NC(=O)[C@H](CC(N)=O)NC(=O)OCc1ccccc1 [benzyl N-[(1S)-2-carbamoyl-1-{[(2S,3S)-3-hydroxy-4-[methyl(methylcarbamoyl)amino]-1-phenylbutan-2-yl]carbamoyl}ethyl]carbamate] | < 5.00
